Source: ChEMBL document CHEMBL5108038, “Development of Inhibitors Targeting the V-Domain Ig Suppressor of T Cell Activation Signal Pathway” (J Med Chem, 2022)
pEC50, pIC50, pKd: −log10 of the molar value.

Experiments:
[1] = biological target: T1, V-type immunoglobulin domain-containing suppressor of T-cell activation (Homo sapiens) (UniProt Q9H7M9); assay: Inhibition of recombinant VISTA signalling pathway (unknown origin) at 10 uM by HTRF assay relative to control
T1 sequence (whole entry): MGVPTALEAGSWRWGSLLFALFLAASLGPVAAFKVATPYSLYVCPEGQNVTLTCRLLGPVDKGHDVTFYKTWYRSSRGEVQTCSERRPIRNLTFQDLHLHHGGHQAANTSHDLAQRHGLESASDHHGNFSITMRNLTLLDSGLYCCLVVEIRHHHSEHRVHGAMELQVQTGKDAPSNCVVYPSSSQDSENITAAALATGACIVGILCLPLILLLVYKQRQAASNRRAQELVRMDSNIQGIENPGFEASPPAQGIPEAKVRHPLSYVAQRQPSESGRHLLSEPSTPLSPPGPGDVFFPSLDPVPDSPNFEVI

[2] = biological target: Programmed cell death protein 1/Programmed cell death 1 ligand 1 (Homo sapiens) (UniProt Q15116+Q9NZQ7); assay: Inhibition of recombinant PD-1/PD-L1 signalling route (unknown origin) at 10 uM by HTRF assay relative to control; type: protein-complex assay
[3] = Inhibition of PD-L1 in human PBMC; type: cell-based
[4] = Inhibition of VISTA/VSIG3 protein protein interaction (unknown origin) by FRET method; design: species or system Homo sapiens
[5] = biological target: T2, V-set and immunoglobulin domain-containing protein 8 (Homo sapiens, UniProt P0DPA2); assay: Binding affinity to human VSIG8 assessed as dissociation constant by MST method
T2 sequence (P0DPA2 whole entry): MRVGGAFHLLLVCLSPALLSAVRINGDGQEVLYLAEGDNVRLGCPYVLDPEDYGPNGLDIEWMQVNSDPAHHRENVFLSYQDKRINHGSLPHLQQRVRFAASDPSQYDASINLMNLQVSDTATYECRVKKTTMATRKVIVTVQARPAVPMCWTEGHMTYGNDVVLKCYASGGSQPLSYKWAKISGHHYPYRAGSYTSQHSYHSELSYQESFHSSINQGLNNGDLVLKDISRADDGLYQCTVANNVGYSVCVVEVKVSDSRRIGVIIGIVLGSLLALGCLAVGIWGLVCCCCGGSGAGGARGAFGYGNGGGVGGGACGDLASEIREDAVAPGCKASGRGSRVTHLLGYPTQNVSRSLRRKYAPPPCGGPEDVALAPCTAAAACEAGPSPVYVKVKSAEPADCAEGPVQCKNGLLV

[6] = Antitumor immunity in PBMC (unknown origin) assessed as inhibition of VSIG8 binding to VISTA; type: functional, cell-based
[7] = biological target: T3, V-type immunoglobulin domain-containing suppressor of T-cell activation (Homo sapiens, UniProt Q9H7M9); assay: Binding affinity to VISTA (unknown origin) assessed as dissociation constant by MST method
T3 sequence (Q9H7M9 whole entry): T1 sequence (whole entry)

C[C@@H](O)[C@H](NC(=O)C1(C(=O)N[C@@H](CC(N)=O)c2nc([C@H](N)CO)no2)CCCC1)C(=O)O
inhibition [1]: 81% | inhibition [2]: 92%

C[C@@H](O)[C@H](NC(=O)N[C@@H](CC(N)=O)c1nc([C@H](N)CO)no1)C(=O)O
pEC50 [3]: 7.18

CN(C)c1n/c(=N\Cc2ccco2)ss1
pIC50 [4]: 5.32

COc1cc(NC(=O)Nc2c(-c3ccncc3)[nH]c3ccc(Cl)cc23)cc(OC)c1
pKd [5]: 5.17 | pEC50 [6]: 5.83

Cc1ccc2nc(Nc3nc(O)cc(CSc4nnc(C)s4)n3)nc(C)c2c1
pKd [7]: 6.19
